# Data: patent US6357163B1, “Use of nucleic acid analogues in diagnostics and analytical procedures” (priority 1991, dated 2002)
# Legend:
# 5′-AAA-AAA-AAA-AAA-AAA = test: Melting temperature (Tm) of hybrid with oligodeoxyribonucleotide; assay type: binding; details: oligo 14 (5′-AAA-AAA-AAA-AAA-AAA); 10 mM phosphate, 1 mM EDTA, 140 mM NaCl, pH 7.2
# Source text: (§1) 2. Upon formation of DNA duplexes (dsDNA) from single strand DNA, the extinction coefficient decreases (hypochromicity). Thus, the denaturing of DNA can be followed by measuring changes in the absorbance, for example, as a function of […], the temperature where 50% of a duplex has disappeared to give single strands.
# (§2) Duplexes were formed from the single-stranded oligodeoxyribonucleotides and the PNAs listed below. Typically 0.3 OD260 of the T-rich strand was hybridized with 1 equivalent of the other strand by heating to 90° C. for 5 min, cooling to room temperature and kept for 30 min and finally stored in a refrigerator at 5° C. for at least 30 min. The buffers used were all 10 mM in phosphate and 1 mM in EDTA. The low salt buffer contained no sodium chloride, whereas the medium salt buffer contained 140 mM NaCl and the high salt buffer 500 mM NaCl. The pH of all the buffers was 7.2. The melting temperature of the hybrids were determined on a Gilford Response apparatus. The following extinction coefficients were used A: 15.4 ml/μmol.cm; T: 8.8; G: 11.7 and C: 7.3 for both normal oligonucleotides and PNA. The melting curves were recorded in steps of 0.5 C/min. The Tm were determined from the maximum of the 1st derivative of the plot of A260 vs temperature.
# 14. 5′-AAA-AAA-AAA-AAA-AAA (See SEQ ID NO:20)
# (dA)10 = test: as above; assay type: binding; details: oligo 2 (5′-AAA-AAA-AAA-A), 10 mM phosphate, 1 mM EDTA, pH 7.2; for Tm, Medium Salt: 140 mM NaCl
# Source text: as §1, §2
# (dA)5(dG)(dA)4 = test: as above; assay type: binding; details: oligo 4 (5′-AAA-AAG-AAA-A); 10 mM phosphate, 1 mM EDTA, 140 mM NaCl, pH 7.2
# Source text: as §1, §2
# 5′-AAA-AGA-AGA-A = test: as above; assay type: binding; details: oligo 7 (5′-AAA-AGA-AGA-A); 10 mM phosphate, 1 mM EDTA, 140 mM NaCl, pH 7.2
# Source text: as §1, §2
# 7. 5′-AAA-AGA-AGA-A (See SEQ ID NO:13)
# 5′-AAG-AAG-AAA-A = test: as above; assay type: binding; details: oligo 5 (5′-AAG-AAG-AAA-A); 10 mM phosphate, 1 mM EDTA, 140 mM NaCl, pH 7.2
# Source text: as §1, §2
# 5. 5′-AAG-AAG-AAA-A (See SEQ ID NO:9)
# 32P-end-labelled dA10 = test: Binding to dA10, gel retardation (PAGE)
# Procedure: (§3) 1. As shown in Example 56 below PNA-oligonucleotide complexes will migrate slower than the single stranded oligonucleotide upon electrophoresis in polyacrylamide gels. Consequently, such experiments were performed with Acr^1-(Taeg)10-Lys-NH2 and ^32P-end-labelled dA10.
# The sample was cooled in ice (15 min) and analyzed by gel electrophoresis in polyacrylamide (PAGE). To 10 μl of the sample was added 2 μl 50% glycerol, 5μl TBE (TBE=90 mM Tris-borate, 1 mM EDTA, pH 8.3), and the sample was analysed by PAGE (15% acrylamide, 0.5% bisacrylamide) in TBE buffer at 4° C. A 10 μl portion of the sample was lyophilized and redissolved in 10 μl 80% formamide, 1 TBE, heated to 90° C. (5 min), and analyzed by urea/PAGE (15% acrylamide, 0.5% bisacrylamide, 7 M urea) in TBE. [^32P]-containing DNA bands were visualized by autoradiography using intensifying screens and Agfa Curix RPI X-ray films exposed at −80° C. for 2 h.
# Oligonucleotides were synthesized on a Biosearch 7500 DNA synthesizer, labelled with γ[^32P]-ATP (Amersham, 5000 Ci/mmol) and polynucleotide kinase, and purified by PAGE using standard techniques (Maniatis et al. (1986): A laboratory manual, Cold Spring Harbor Laboratories).
# (§4) In FIG. 11a and in FIG. 11b, the 5′-^32P-labelled oligonucleotide 1 is 5′-GATCCA10G. This was incubated in the absence (lanes 1 and 4) or presence of Acr-T10-Lys-NH2 (in lanes 2 and 5, 25 pmol; lanes 3 and 6, 75 pmol) and also in the absence (lanes 1 to 3) or presence (lanes 4 to 6) of “oligo-2” which was 5′-GATCCT10G. 5′-^32P-labelled oligo 2 was incubated in the absence (lane 7) or presence of the same PNA (lane 8, 25 pmol; lane 9, 75 pmol) and analysed by PAGE as described above in detail.
# The results in FIG. 11a show retardation of the ssDNA as it is hybridised by PNA (lanes 1 to 3) and the ability of PNA to compete with a DNA oligonucleotide, for labelled complementary oligonucleotide (lanes 4 to 6). The intensity of the band attributable to dsDNA grows faster as the PNA concentration is raised and is replaced by a band representing the slower moving PNA-DNA hybride. […]
# 32P-end-labelled dT10 = test: Gel retardation (PAGE), control experiment; assay type: binding; details: same conditions
# Procedure: as §3, §4
# The results in FIG. 11a show retardation of the ssDNA as it is hybridised by PNA (lanes 1 to 3) and the ability of PNA to compete with a DNA oligonucleotide, for labelled complementary oligonucleotide (lanes 4 to 6). The intensity of the band attributable to dsDNA grows faster as the PNA concentration is raised and is replaced by a band representing the slower moving PNA-DNA hybride.
substance,measurement,setting,value
5′-TTT-TTT-TTT-TTT-TTT [Oligo 13],"Tm, Medium Salt",5′-AAA-AAA-AAA-AAA-AAA,39.0 °C
Ac-TTT-TTT-TTT-T-Lys-NH2 [f],"Tm, Medium Salt",(dA)10,74 °C
same,"Tm, Medium Salt",(dA)5(dG)(dA)4,62.0 °C
same,"Tm, Medium Salt",5′-AAA-AGA-AGA-A,43.5 °C
same,"Tm, Medium Salt",5′-AAG-AAG-AAA-A,46.5 °C
Acr-TTT-TTT-TTT-T-Lys-NH2 [e],migration of 32P-end-labelled dA10 in polyacrylamide gel,32P-end-labelled dA10; native and denaturing gel conditions,retarded migration
same,binding to the corresponding dA10,"32P-end-labelled dA10; summary statement, illustrated by gel retardation and Tm",very efficient binding
same,"Tm, Medium Salt",(dA)10,86.0 °C
same,"Tm, High Salt",(dA)10; 500 mM NaCl,˜90 °C
same,"Tm, Low Salt",(dA)10; no sodium chloride,84.5 °C
same,migration of 32P-end-labelled dT10 in polyacrylamide gel,32P-end-labelled dT10,no retardation
